Legend:
Phosphodiesterase 4 = Phosphodiesterase 4 (Homo sapiens, UniProt P27815+Q08499+Q07343+Q08493); experiment: Inhibition of cAMP hydrolysis by human Phosphodiesterase 4; type: protein assay
Phosphodiesterase 1 = Phosphodiesterase 1 (Bos taurus, UniProt Q01061+P14100); experiment: Inhibition of Phosphodiesterase 1 from bovine aorta; type: protein assay
[1] = molecular target: T1, cGMP-dependent 3',5'-cyclic phosphodiesterase (Bos taurus, UniProt P14099); experiment: Inhibition of bovine Phosphodiesterase 2
T1 sequence (P14099 whole entry): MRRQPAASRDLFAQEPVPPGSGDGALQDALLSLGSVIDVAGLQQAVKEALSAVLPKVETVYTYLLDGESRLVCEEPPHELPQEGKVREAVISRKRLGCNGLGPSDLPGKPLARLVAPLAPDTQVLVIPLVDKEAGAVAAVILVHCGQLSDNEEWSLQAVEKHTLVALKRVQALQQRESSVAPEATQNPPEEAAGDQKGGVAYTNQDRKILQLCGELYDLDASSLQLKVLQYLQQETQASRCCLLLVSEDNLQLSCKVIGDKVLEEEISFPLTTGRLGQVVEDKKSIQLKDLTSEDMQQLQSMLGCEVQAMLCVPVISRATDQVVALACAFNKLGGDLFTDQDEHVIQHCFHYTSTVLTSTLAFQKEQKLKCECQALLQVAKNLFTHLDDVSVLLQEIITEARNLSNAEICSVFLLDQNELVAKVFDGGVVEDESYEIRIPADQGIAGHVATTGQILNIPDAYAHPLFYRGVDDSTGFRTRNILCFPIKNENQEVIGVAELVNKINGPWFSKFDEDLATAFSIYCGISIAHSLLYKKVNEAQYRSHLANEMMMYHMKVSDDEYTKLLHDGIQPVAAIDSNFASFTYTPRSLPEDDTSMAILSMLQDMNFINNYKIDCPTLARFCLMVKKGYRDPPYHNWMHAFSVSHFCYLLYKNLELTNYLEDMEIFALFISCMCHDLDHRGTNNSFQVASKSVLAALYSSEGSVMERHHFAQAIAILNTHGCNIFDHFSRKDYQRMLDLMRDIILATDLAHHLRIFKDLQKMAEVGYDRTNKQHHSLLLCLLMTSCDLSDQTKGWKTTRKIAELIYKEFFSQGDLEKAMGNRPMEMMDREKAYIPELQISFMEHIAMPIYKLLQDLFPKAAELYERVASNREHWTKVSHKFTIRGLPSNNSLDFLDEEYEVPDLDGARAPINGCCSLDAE

[2] = molecular target: cGMP-specific 3',5'-cyclic phosphodiesterase (Homo sapiens, UniProt O76074); experiment: Inhibition of Phosphodiesterase 5 isolated from human trachea; type: tissue-based
[3] = molecular target: High affinity 3',5'-cyclic-AMP phosphodiesterase 7A (Homo sapiens, UniProt Q13946); experiment: Inhibition of human Phosphodiesterase 7
Chain of High affinity 3',5'-cyclic-AMP phosphodiesterase 7A (Q13946 whole entry): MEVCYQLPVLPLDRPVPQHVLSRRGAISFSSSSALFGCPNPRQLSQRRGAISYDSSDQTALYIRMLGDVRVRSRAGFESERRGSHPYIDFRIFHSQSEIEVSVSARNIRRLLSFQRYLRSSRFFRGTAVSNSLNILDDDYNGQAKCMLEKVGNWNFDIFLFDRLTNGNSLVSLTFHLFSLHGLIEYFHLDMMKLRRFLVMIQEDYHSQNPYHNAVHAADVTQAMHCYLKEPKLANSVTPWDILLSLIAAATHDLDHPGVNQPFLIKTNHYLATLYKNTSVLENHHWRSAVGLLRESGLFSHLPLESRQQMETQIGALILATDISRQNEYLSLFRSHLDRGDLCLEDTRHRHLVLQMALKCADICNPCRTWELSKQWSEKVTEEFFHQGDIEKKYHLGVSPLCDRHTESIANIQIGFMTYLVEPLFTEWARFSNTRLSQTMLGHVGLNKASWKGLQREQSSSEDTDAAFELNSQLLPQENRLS

Phosphodiesterase 6 = experiment: Inhibition of Phosphodiesterase 6 from bovine retina; type: protein assay, Bos taurus
Phosphodiesterase 3 = Phosphodiesterase 3 (Homo sapiens, UniProt Q14432+Q13370); experiment: Inhibition of Phosphodiesterase 3 from human pulmonary artery; type: tissue-based

Compound | Ki (Phosphodiesterase 4) | other results
COC(=O)N1C[C@@H](c2ccc(OC)c(OC3CCCC3)c2)[C@](C)(CO)C1 | 37 nM | 
CCOC(=O)[C@]1(C)CN(C(=O)OC)C[C@H]1c1ccc(OC)c(OC2CCCC2)c1 | 86 nM | 
COC(=O)N1CC[C@H](c2ccc(OC)c(OC3CCCC3)c2)C1 | 110 nM | 
COC(=O)N1C[C@@H](c2ccc(OC)c(OC3CCCC3)c2)[C@](C)(C(C)=O)C1 | 1 nM | Ki (Phosphodiesterase 1): > 100000 nM; Ki [1]: > 100000 nM; Ki [2]: > 100000 nM; Ki [3]: 7900 nM; Ki (Phosphodiesterase 6): > 100000 nM; Ki (Phosphodiesterase 3): > 100000 nM
COC(=O)N1C[C@@H](c2ccc(OC)c(OC3CCCC3)c2)[C@](C)(C(=O)OC)C1 | 3 nM | 
CC[C@@]1(C(C)=O)CN(C(=O)OC)C[C@H]1c1ccc(OC)c(OC2CCCC2)c1 | 10 nM | 

Now from value to compound, other results behind:

Ki (Phosphodiesterase 4) | Compound | other results
100 nM | COC(=O)N1C[C@H](C)[C@H](c2ccc(OC)c(OC3CCCC3)c2)C1 | 
224 nM | COC(=O)N1C[C@@H](CO)[C@H](c2ccc(OC)c(OC3CCCC3)c2)C1 | 
33 nM | COC(=O)N1C[C@@H](C(C)=O)[C@H](c2ccc(OC)c(OC3CCCC3)c2)C1 | 
159 nM | COC(=O)[C@@H]1CN(C(=O)OC)C[C@H]1c1ccc(OC)c(OC2CCCC2)c1 | 
550 nM | CCOC(=O)[C@@H]1CN(C(=O)OC)C[C@H]1c1ccc(OC)c(OC2CCCC2)c1 | 

— ChEMBL document CHEMBL1128215, “Introduction of a conformational switching element on a pyrrolidine ring. Synthesis and evaluation of (R*,R*)-(+/-)-methyl 3-acetyl-4-[3- (cyclopentyloxy)-4-methoxyphenyl]-3-methyl-1-pyrrolidinecarboxylate, a potent and selective inhibitor of cAMP-specific phosphodiesterase” (J Med Chem, 1995)
